Laboratory results taken from patent US6017933A, “Mannich bases of conjugated styryl ketones” (University of Saskatchewan Technologies Inc., priority 1999, dated 2000).

How the values were obtained:
L1210 cells = assay: Cytotoxicity, murine L1210 leukemic cells; assay type: cell-based; settings: Mus musculus, mean
CEM cells = assay: Cytotoxicity, CEM human T-lymphocytes; settings: for IC50: Homo sapiens, CCRF-CEM, read-out: CEM cells IC50; for TIL1210 (CEM cells): IC50 T-lymphocytes (CEM)/IC50 L1210; for TIP388 (CEM cells): IC50 T-lymphocytes (CEM)/IC50 P388; for TIht (CEM cells): IC50 T-lymphocytes (CEM)/IC50 human tumors
Molt 4/C8 cells = assay: Cytotoxicity, Molt 4/C8 human T-lymphocytes; settings: for TIL1210 (Molt 4/C8 cells): IC50 T-lymphocytes (Molt 4/C8)/IC50 L1210; for TIP388 (Molt 4/C8 cells): IC50 T-lymphocytes (Molt 4/C8)/IC50 P388; for TIht (Molt 4/C8 cells): IC50 T-lymphocytes (Molt 4/C8)/IC50 human tumors; for IC50: read-out: Molt 4/C8 cells IC50
P388 cells = assay: Cytotoxicity, murine P388 leukemic cells (P388 D1); settings: for IC50: read-out: P388 cells IC50
human tumors = assay: Cytotoxicity, human tumor cell line panel (approximately 55 lines); settings: for IC50: read-out: human tumors IC50, mean graph midpoint, approximately 55 cell lines, hydrobromide salts used for 4a, 11a-e

| SMILES | IC50 (L1210 cells) [µM] | IC50 (CEM cells) [µM] | TIL1210 (CEM cells) (CEM cells) | TIP388 (CEM cells) (CEM cells) | TIht (CEM cells) (CEM cells) | TIL1210 (Molt 4/C8 cells) (Molt 4/C8 cells) | TIP388 (Molt 4/C8 cells) (Molt 4/C8 cells) | TIht (Molt 4/C8 cells) (Molt 4/C8 cells) | IC50 (Molt 4/C8 cells) [µM] | IC50 (P388 cells) [µM] | IC50 (human tumors) [µM] | potency relative to melphalan, P388 (P388 cells) | TI (murine leukemia cells vs T-lymphocytes; printed TIht) compared with compound d (Molt 4/C8 cells) | TIht compared with compound 9d (Molt 4/C8 cells) | cytotoxicity compared with compound 9d (P388 cells; Table 3 screens) | selective/preferential cytotoxicity towards colon cancer cells (human tumors; human tumor screen) | Selective toxicity towards leukemia (human tumors; human tumor screen) | activity relative to melphalan, human tumors (human tumors) |
| --- | --- | --- | --- | --- | --- | --- | --- | --- | --- | --- | --- | --- | --- | --- | --- | --- | --- | --- |
| CC[N+]1(C)CCC(O)(c2ccc(Cl)c(Cl)c2)C(C(=O)c2ccc(Cl)c(Cl)c2)C1 (stereo not drawn) [Compound 12c] | 33.6 | 25.8 | 0.77 | 11.20 | 2.70 | 0.84 | 12.23 | 2.95 | 28.1 | 2.3 | 9.54 | – | – | – | – | – | – | – |
| CCN1CCC(O)(/C=C/c2ccccc2)C(C(=O)/C=C/c2ccccc2)C1 (stereo not drawn) [Compound 9a] | 5.3 | 16.5 | 3.12 | 11.81 | 6.02 | 5.64 | 21.36 | 10.88 | 29.9 | 1.4 | 2.75 | – | – | – | – | – | – | – |
| CCN(CC)CCC(=O)/C=C/c1ccc(C)cc1 [Compound 1d] | 52.9 | 48.6 | 0.92 | 44.19 | – | 1.05 | 50.65 | – | 55.7 | 1.1 | – | – | – | – | – | – | – | – |
| O=C(/C=C/c1ccccc1)CCN1CCN(CCC(=O)/C=C/c2ccccc2)CC1 [Compound 8a] | 5.78 | 5.55 | 0.96 | 3.95 | 0.46 | 0.95 | 8.89 | 0.46 | 5.51 ± 2.73 | 0.62 | 12 | – | – | – | – | – | – | – |
| CCN(CC)CCC(=O)c1ccc(Cl)cc1 [Compound 4b] | 36.9 | 40 | 1.08 | 12.50 | – | 0.62 | 7.13 | – | 22.8 | 3.2 | – | – | – | – | – | – | – | – |
| CCN(CC)CCC(=O)/C=C/c1ccc(Cl)c(Cl)c1 [Compound 1c] | 61.2 | 55.8 | 0.91 | 143.2 | 14.70 | 0.74 | 116.5 | 11.96 | 45.4 | 0.39 | 3.8 | more than half the potency of melphalan | – | – | – | – | – | – |
| CCN1CCC(O)(/C=C/c2cccc(C)c2)C(C(=O)/C=C/c2cccc(C)c2)C1 (stereo not drawn) [Compound 13a] | 12.6 | 9.23 | 0.73 | 4.89 | 3.75 | 1.14 | 7.57 | 5.81 | 14.3 ± 9.1 | 1.89 | 2.46 | – | lower | greater than compound 9d | comparable cytotoxicity to compound 9d | neither 13a,b displayed selective toxicity for colon cancers | – | – |
| CCN(CC)CCC(=O)c1ccccc1 [Compound 4a] | 20.3 | 38.5 | 1.90 | 14.81 | 1.53 | 0.86 | 6.68 | 0.69 | 17.4 | 2.6 | 25.1 | – | – | – | – | – | – | – |
| CCN(CC)CCC(=O)/C=C/c1ccc(Cl)cc1 [Compound 1b] | 41 | 53.3 | 1.30 | 177.6 | – | 0.98 | 134.6 | – | 40.4 | 0.3 | – | more than half the potency of melphalan | – | – | – | – | – | – |
| CC[N+]1(C)CCC(O)(c2ccc(Cl)cc2)C(C(=O)c2ccc(Cl)cc2)C1 (stereo not drawn) [Compound 12b] | – | – | – | – | – | – | – | – | – | 1.5 | 12.9 | – | – | – | – | – | Selective toxicity towards leukemia was observed | – |
| CCN1CCC(O)(c2ccc(OC)cc2)C(C(=O)c2ccc(OC)cc2)C1 (stereo not drawn) [Compound 11e] | 13.5 | 39.9 | 2.96 | 9.57 | 2.05 | 2.94 | 9.51 | 2.04 | 39.7 | 4.17 | 19.5 | – | – | – | – | – | – | – |
| CC[N+]1(C)CCC(O)(c2ccc(OC)cc2)C(C(=O)c2ccc(OC)cc2)C1 (stereo not drawn) [Compound 12e] | – | – | – | – | – | – | – | – | – | 0.98 | 10.2 | – | – | – | – | – | Selective toxicity towards leukemia was observed | – |
| CCN1CCC(O)(c2ccc(O)cc2)C(C(=O)c2ccc(O)cc2)C1 (stereo not drawn) [Compound 11f] | 9.75 | 42.6 | 4.37 | 30.46 | 2.04 | 4.32 | 30.09 | 2.02 | 42.1 | 1.4 | 20.9 | – | – | – | – | – | – | – |
| CCN1CCC(O)(c2ccc(Cl)c(Cl)c2)C(C(=O)c2ccc(Cl)c(Cl)c2)C1 (stereo not drawn) [Compound 11c] | – | – | – | – | – | – | – | – | – | 3.11 | 16.6 | – | – | – | – | – | – | – |
| CC[N+]1(C)CCC(O)(c2ccc(C)cc2)C(C(=O)c2ccc(C)cc2)C1 (stereo not drawn) [Compound 12d] | – | – | – | – | – | – | – | – | – | 2.1 | 50.1 | – | – | – | – | – | – | five times more potent than melphalan |
| CCN1CCC(O)(/C=C/c2ccc(Cl)c(Cl)c2)C(C(=O)/C=C/c2ccc(Cl)c(Cl)c2)C1 (stereo not drawn) [Compound 9c] | – | – | – | – | – | – | – | – | – | 0.4 | 0.38 | more than half the potency of melphalan | – | – | – | – | – | – |
| CCN(CC)CCC(=O)/C=C/c1ccccc1 [Compound 1a] | 25.7 | 33.9 | 1.32 | 19.92 | 3.47 | 1.66 | 25.04 | 4.36 | 42.6 | 1.7 | 9.77 | – | – | – | – | – | this property was also noted | – |
| CCN1CCC(O)(c2ccc(C)cc2)C(C(=O)c2ccc(C)cc2)C1 (stereo not drawn) [Compound 11d] | 38.2 | 38.7 | 1.01 | 4.50 | 1.54 | 0.89 | 3.97 | 1.36 | 34.2 | 8.6 | 25.1 | – | – | – | – | – | – | – |
| CCN(CC)CCC(=O)c1ccc(Cl)c(Cl)c1 [Compound 4c] | – | – | – | – | – | – | – | – | – | – | – | more than half the potency of melphalan | – | – | – | – | – | – |
| O=C(CCN1CCN(CCC(=O)c2ccccc2)CC1)c1ccccc1 [Compound 8b] | 9.71 | 16 | 1.65 | 5.64 | – | 2.69 | 9.20 | – | 26.1 | 2.84 | – | – | – | – | – | – | – | – |
| CCN1CCC(O)(c2ccccc2)C(C(=O)c2ccccc2)C1 (stereo not drawn) [Compound 11a] | 20.1 | 45.7 | 2.28 | 42.70 | 1.51 | 1.80 | 33.78 | 1.20 | 36.1 | 1.07 | 30.2 | – | – | – | – | – | – | – |
| CCN1CCC(O)(c2ccc(Cl)cc2)C(C(=O)c2ccc(Cl)cc2)C1 (stereo not drawn) [Compound 11b] | 15.7 | 102 | 6.52 | 19.89 | 1.23 | 3.68 | 11.21 | 0.69 | 57.6 | 5.14 | 83.2 | – | – | – | – | – | – | – |
| CCN(CC)CCC(=O)/C=C/c1ccc(OC)cc1 [Compound 1e] | 44.3 | 48.6 | 1.10 | 72.55 | – | 1.17 | 77.69 | – | 52.1 | 0.67 | – | – | – | – | – | – | – | – |
| CCN(CC)CCC(=O)c1ccc(C)cc1 [Compound 4d] | 21.5 | 64.1 | 2.98 | 29.15 | 2.44 | 2.96 | 28.97 | 2.42 | 63.7 | 2.2 | 26.3 | – | – | – | – | – | – | – |
| CC[N+]1(C)CCC(O)(c2ccccc2)C(C(=O)c2ccccc2)C1 (stereo not drawn) [Compound 12a] | – | – | – | – | – | – | – | – | – | 1.3 | 12.9 | – | – | – | – | – | Selective toxicity towards leukemia was observed | – |
| CC[N+]1(C)CCC(O)(/C=C/c2ccc(C)cc2)C(C(=O)/C=C/c2ccc(C)cc2)C1 (stereo not drawn) [Compound 10d] | 13.8 | 3.92 | 0.28 | 6.32 | – | 0.45 | 9.98 | – | 6.19 ± 0.7 | 0.62 | – | – | – | – | – | – | – | – |
